For series [1] the following is noted: cited from earlier work.
Series [2] deals with forearm microvessels. The series can be described thus: Forearm blood flow responses to intra-arterial infusions by venous occlusion plethysmography in white and black hypertensive patients. The conditions noted are these: intra-arterial infusion. Type of series: in vivo, human.
For series [3], the system named is forearm microvessels. The series can be described thus: Forearm microvascular vasodilator responses in salt-sensitive versus salt-resistant normotensive black patients. Type of series: in vivo, human. How it is done:
To explore the relation between salt-sensitivity and endothelium-derived NO action in black patients prior to the development of hypertension, the blood pressure response to salt-loading and salt-deprivation using an established inpatient protocol (Weinberger et al, Hypertension, 8:II-127-II-134 (1986)) in a group of normotensive black patients was assessed. Briefly, blood pressure was continuously monitored non-invasively during a salt load (sodium 458 mEq over 24 hours) and during a period of salt depletion (furosemide treatment and sodium intake 10 mEq over 24 hours). Patients were considered to be salt-sensitive if mean blood pressure was at least 10 mm Hg higher during the salt loading period (Weinberger et al, Hypertension, 8:II-127-II-134 (1986)).

Series [4] relates to forearm microvessels. Kind of series: Forearm blood flow responses by venous occlusion plethysmography in normotensive white and black patients. The conditions noted are these: 46 normotensive white and black patients matched for age and gender. Type of series: in vivo, human. How it is done:
FIGS. 3A and 3B show forearm blood flow responses to nitroprusside (FIG. 3A) and methacholine (FIG. 3B) that were assessed by venous occlusion plethysmography in 25 white and 21 black patients without hypertension.
To investigate the issue of whether NO deficiency is a primary or secondary phenomenon in hypertensive black patients, 46 normotensive white and black patients who were matched for age and gender were compared. […] These findings are consistent with recently published results by other investigators (Lang et al, N EngI J Med, 333:155-160 (1995); Cardillo et al, Hypertension 31:1235-1239 (1998)).

The next series has as its system conduit arteries. Kind of series: Conduit vessel function by brachial ultrasound technique (nitroglycerin-mediated dilation). It is filed as in vivo, human. The conditions noted are these: for NTG-response (%): mean ± SD. The source says:
The effects of hypertension and race on conduit vessel function were examined using a well-established brachial ultrasound technique (Vita et al, Lanzer & Lipton, Eds., Diagnostics of Vascular Diseases: Principles and Technology. Berlin:Springer-Verlag, pp.249-259 (1996)) in 370 patients (178 black, 192 white). […] Further, systolic blood pressure was inversely correlated with flow-mediated dilation (r=−0.30, P<0.001) and nitroglycerin-mediated dilation (r=−0.33, P<0.001). Diastolic pressure correlated to a similar extent with vascular function. By multiple linear regression analysis, vessel size and systolic blood pressure were the only independent predictors of flow-mediated dilation in this sizable group of patients.

The values below come from patent US7708989B2, “Methods of treating vascular diseases characterized by nitric oxide insufficiency” (NitroMed, Inc., priority 1999, dated 2010).

Entries after “also recorded” stand apart in the source; their conditions may differ.

As for `O=[N+]([O-])O[C@H]1CO[C@H]2[C@@H]1OC[C@H]2O[N+](=O)[O-]` [isosorbide dinitrate, 1,4,3,6-dianhydro-D-glucitol-2,5-dinitrate], the “solubility in organic solvents” value in series [1] (organic solvents such as ethanol, ether and chloroform) was “freely soluble”. Also, the solubility in water entry in series [1] (water) was “sparingly soluble”.

Consider `CC(=O)OC(C)C[N+](C)(C)C` (stereo not shown) [methacholine], for which, in the series on forearm microvessels [2] (36 white and black hypertensive patients), the “vasodilator (forearm blood flow) response, black compared to white hypertensive patients” value was “impaired; also recorded: markedly worse”. For the same compound, the “dilator response, hypertensive patients compared to age-matched normotensive controls” value in the series with forearm microvessels [2] (hypertensive versus normotensive controls) was “significantly reduced”. Further, the “vasodilator response, salt-sensitive compared to salt-resistant patients” value in the series on forearm microvessels [3] (normotensive black patients, repeated measures ANOVA) is given as “trends for impaired vasodilator responses”. For the same compound, in the series with forearm microvessels [4], the “vasodilator response, black compared to white normotensive patients” value is listed as “no racial difference; also recorded: not significantly different”.

As to `O=[N+]([O-])OCC(CO[N+](=O)[O-])O[N+](=O)[O-]` [nitroglycerin], the “nitroglycerin-mediated dilation according to race” value with conduit arteries (370 patients (178 black, 192 white)) is recorded as “no significant differences”. The “NTG-response (%)” value was determined as 16.4 ± 7.1 % with conduit arteries (Black Patients, Hypertensive, p < 0.001 compared to race matched normotensives); 20.6 ± 8.4% in the series on conduit arteries (Black Patients, Normotensive); 14.6 ± 6.2 % in the series with conduit arteries (White Patients, Hypertensive, p < 0.001 compared to race matched normotensives); 18.1 ± 8.1% in the series with conduit arteries (White Patients, Normotensive). In addition, in the series on conduit arteries (hypertensive versus normotensive patients), the “effect of hypertension on nitroglycerin-mediated dilation” value is “highly significant reduction”.

As to `COc1ccc(CCN(C)CCCC(C#N)(c2ccc(OC)c(OC)c2)C(C)C)cc1OC` (stereo not shown) [verapamil], in the series with forearm microvessels [3] (human, in vivo), the “vasodilator response, salt-sensitive compared to salt-resistant patients” value is “equivalent”.
